The source of these data is PubChem BioAssay AID1996.

Values after ≈ are worked out from the molar mass of the structure shown.

For this data set the following is noted: buffer; pH 7.4; 200.0 µM.
For orientation: solubility (kinetic) means the concentration staying in solution when a stock, usually in DMSO, is diluted into the medium. Turning to `COc1ccccc1N1CCN(c2ccc(S(=O)(=O)N3CCN(C)CC3)cn2)CC1`, the solubility (kinetic) turned out to be 26.9 µg/mL (≈ 62.3 µM).

`O=C(O)c1ccc2c(c1)C(=O)N(c1ccc(C(=O)OCC(=O)c3ccccc3)cc1)C2=O` yielded a kinetic solubility of 45.4 µg/mL (≈ 106 µM).

As for `Cc1ccc(C)c(NC(=O)COC(=O)CC2CC3CCC2C3)c1` (configuration not stated), the kinetic solubility came out at 20.4 µg/mL (≈ 64.7 µM). This solubility kinetic lies about 2.2-fold lower than the previous one. With `CNC(=S)N1CCC(Cc2ccccc2)CC1`, the solubility (kinetic) was 36.9 µg/mL (≈ 149 µM). This solubility kinetic lies about 1.8-fold higher than the previous one. In turn, `CC1(/[N+]([O-])=C/c2cccc(Cl)c2)CCCCC1=O` (configuration not stated) came in with a solubility (kinetic) of 36.2 µg/mL (≈ 136 µM). In turn, `CCC1(C)Cc2c(sc3nc(SC)[nH]c(=S)c23)CO1` (configuration not stated) showed a kinetic solubility of 8.9 µg/mL (≈ 28.5 µM). In the case of `Cc1ccc(OCCNC(=O)c2ccccc2F)cc1` it was 36.5 µg/mL (≈ 134 µM); in that of `CC(=O)N1CCN(CC(C)(C)NS(=O)(=O)c2ccc(C)cc2)CC1`, 46.6 µg/mL (≈ 132 µM). In the case of `O=C(O)c1ccccc1C(=O)NC1CCCc2ccccc21` (configuration not stated) it was greater than 44.3 µg/mL; in that of `COc1ccc(NC(=O)c2sccc2-n2cccc2)cc1`, 3.4 µg/mL (≈ 11.4 µM); in that of `O=C(Nc1ncccn1)C1CCCCC1`, greater than 30.8 µg/mL. Under `O=C(Cc1ccccc1)Nc1ccc(NC(=O)c2cccnc2)cc1` stands 3.2 µg/mL (≈ 9.66 µM).

The compound `O=C(COC(=O)c1cncc(Br)c1)NCc1cccs1` had a kinetic solubility of 40.6 µg/mL (≈ 114 µM). Under `CN(C(=O)CSC(=O)c1ccccc1)c1ccccc1` stands 40.6 µg/mL (≈ 142 µM).

`Cc1nnc(NC(=O)c2ccc3nccnc3c2)s1` returned a solubility (kinetic) greater than 40.7 µg/mL. In turn, `CCc1ccc(OC)c(S(=O)(=O)NCc2cccs2)c1` returned a kinetic solubility greater than 46.7 µg/mL. In the case of `O=C(COC(=O)c1cccnc1Cl)NCc1cccs1` it was 44.1 µg/mL (≈ 142 µM); in that of `Cc1cc(C)cc(NC(=O)Cn2cc(C=O)c3ccccc32)c1`, less than 0.3 µg/mL.

`COc1ccc(-c2noc(CN(C)C(=O)c3ccoc3C)n2)cc1OC` showed a kinetic solubility of 43.3 µg/mL (≈ 121 µM). Compound `CC(=O)N(C)c1ccc(N=C2C(=O)Nc3ccccc32)cc1` yielded a solubility (kinetic) greater than 44 µg/mL.

As for `COCCCNS(=O)(=O)c1cc2c3c(c1)C(C)C(=O)N3CCC2` (configuration not stated), the kinetic solubility is greater than 50.8 µg/mL. For the compound `CCOC(=O)C1=C(O)C(=O)N(Cc2ccccc2)C1`, the kinetic solubility is greater than 39.2 µg/mL.

Regarding `CN(C)C(=O)COC(=O)c1ccccc1NC(=O)c1ccco1`, the kinetic solubility is greater than 47.4 µg/mL. As for `O=C(NCc1ccccc1)/C(=C/c1ccco1)NC(=O)c1ccco1`, the solubility (kinetic) is greater than 50.5 µg/mL. Under `CC(=O)c1ccc(-c2ccc(C(=O)Nc3nc(-c4ccccn4)cs3)o2)cc1` stands 4.9 µg/mL (≈ 12.6 µM); under `CCS(=O)(=O)Nc1ccc2[nH]c(=O)[nH]c2c1`, greater than 36.2 µg/mL; under `Cc1ccc(C(=O)CCC(=O)NCc2ccccc2)cc1`, 16.9 µg/mL (≈ 60.1 µM). Regarding `CCn1c(/C=C/c2ccccc2C)nc2ccccc2c1=O`, the solubility (kinetic) was found to be 3.3 µg/mL (≈ 11.4 µM). On to `COC(=O)c1c(N)sc2c1CC(C)(C)OC2`, for which the kinetic solubility was greater than 36.2 µg/mL. In turn, `O=C(CCCC(=O)c1ccccc1)NCCc1ccccc1F` had a kinetic solubility of 44.1 µg/mL (≈ 141 µM). In the case of `Cc1cc2ccccn2c1C(=O)c1ccccc1F` it was 12.5 µg/mL (≈ 49.4 µM); in that of `CC(C)(C)C(=O)O/N=C(\N)c1ccc([N+](=O)[O-])s1`, 8.2 µg/mL (≈ 30.2 µM).

`Cc1ccc2nc(N3CCOCC3)c(C=O)c(=O)n2c1` came in with a kinetic solubility greater than 41 µg/mL. On to `Cn1c(NC(=O)c2ccccc2)nc2ccccc21`, for which the kinetic solubility turned out to be 13 µg/mL (≈ 51.7 µM). Regarding `Nc1cc(=O)[nH]c(SCC(=O)Nc2cc(S(=O)(=O)N3CCCCCC3)ccc2Cl)n1`, the solubility (kinetic) turned out to be 5.4 µg/mL (≈ 11.4 µM). Against the preceding compound, the solubility kinetic is about 2.4-fold lower. Under `COc1ccc(OC)c2nc3c(cc12)CCC3` stands 29 µg/mL (≈ 126 µM). For `CCCCn1c(=O)[nH]c2c(oc3ccccc32)c1=O`, the solubility (kinetic) worked out at 1.7 µg/mL (≈ 6.58 µM). Compared with the last compound, the solubility kinetic is about 17-fold lower. Compound `NC(=O)c1ccccc1NC(=O)Nc1ccc(F)c(Cl)c1` had a solubility (kinetic) of 2.1 µg/mL (≈ 6.82 µM). In the case of `CC(C)N(C(C)C)S(=O)(=O)c1ccc(Cl)nc1` it was 32.4 µg/mL (≈ 117 µM). In the case of `CN(C)c1cccc(C(=O)Nc2nc3ccccc3[nH]2)c1` it was 12.1 µg/mL (≈ 43.2 µM); in that of `CC(CCc1ccccc1)NC(=O)C(=O)c1c[nH]c2ccccc12` (configuration not stated), 0.9 µg/mL (≈ 2.81 µM). `O=C(Cc1cccc2ccccc12)NCC(=O)Nc1ccccc1F` showed a kinetic solubility of 10.6 µg/mL (≈ 31.5 µM). In the case of `O=C1NC(=Nc2cccc(O)c2)S/C1=C\c1cccnc1` it was 1.2 µg/mL (≈ 4.04 µM). `CCCCOc1ccc(C(=O)OCC(=O)N2CCCCCC2)cc1` displayed a solubility (kinetic) of 8.4 µg/mL (≈ 25.2 µM). In the case of `CSc1ncc(Cl)c(C(=O)Nc2ccccc2[N+](=O)[O-])n1` it was less than 0.2 µg/mL; in that of `NS(=O)(=O)c1cnccc1NCCc1ccccc1`, 40.3 µg/mL (≈ 145 µM). Compound `CCOC(=O)C1(Cc2ccccc2C)CCCN(C(=O)COC)C1` (configuration not stated) displayed a solubility (kinetic) of 35.6 µg/mL (≈ 107 µM). `CC(NS(=O)(=O)c1ccc2[nH]c(=O)c(=O)[nH]c2c1)C(=O)O` (configuration not stated) had a kinetic solubility of 13.9 µg/mL (≈ 44.4 µM). In the case of `Cc1cccc(OCCN2C(=O)c3ccccc3C2=O)c1` it was 4.6 µg/mL (≈ 16.4 µM); in that of `COc1ccccc1CN1CCN(Cc2nc(-c3ccccc3)no2)CC1`, 50.1 µg/mL (≈ 137 µM). In the case of `O=C(CN1CCOCC1)Nc1ccc(Cl)cc1` it was greater than 38.2 µg/mL. Consider `CC(=O)c1ccc(NC(=O)/C(C#N)=C/c2ccncc2)cc1`, for which the solubility (kinetic) worked out at 43.2 µg/mL (≈ 148 µM).
